TGI data for six molecules are collected here from PubChem BioAssay (NCI).

SMILES strings stand for the structures.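 Dose response: 5 concentrations. Exposure: 48 h. Format: 96-well plates. Endpoint: linear interpolation; highest concentration if not reached. Definition used: TGI = concentration required for complete inhibition of growth.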

Common to all, as to assay: NCI tumour cell line growth inhibition, 48 h
The test system of assay [1] is M19-MEL melanoma.
Assay [2] deals with SN12K1 renal.
Assay [3] has as its system P388 leukemia.
Assay [4] has as its system P388/ADR leukemia.
Assay [5] relates to RXF-631 renal.

For `N#CC12Cc3cc4c(cc3-c3cccc(c31)CCN2C(=O)c1ccccc1)OCO4` (configuration not stated), the TGI in assay [1] is greater than 100 µM.
The same measure, in the same setting: to `Cn1cnc([N+](=O)[O-])c1Sc1nc(N)nc2c1ncn2C1OC(CO)C(O)C1O` (configuration not stated) belongs greater than 100 µM; to `O=c1ccc2nc3cc(Br)ccc3sc-2c1`, greater than 100 µM.
Take `Cn1c(=O)[nH]c2nncnc2c1=O`: the TGI in assay [2] is greater than 625 µM; in assay [3], 148 µM; in assay [1], 115 µM; in assay [4], greater than 625 µM.
For the molecule `COc1ccc(C(=O)C2=NON3OC23C(=O)c2ccc(OC)cc2)cc1` (configuration not stated), the TGI in assay [1] worked out at 32.8 µM; in assay [5], 31.8 µM.
As for `COc1ccc2nc3c(C(=O)NCCN(C)C)cccc3cc2c1`, the TGI was found to be 3.27 µM in assay [2], 1.49 µM in assay [3] and 3.05 µM in assay [4].
